The values that follow come from US5585105A, “Utilization of derivatives of 2,5-dihydroxyphenylcarboxylic acids, their homologs, and their salts in preparation of a cosmetic or dermatological composition with a depigmenting action” (L'Oreal, priority 1991, dated 1996).

One data set relates to melanocyte.
Test: not given
Conditions: background statement; cited from earlier work.
For the compound `Oc1ccc(O)cc1` [hydroquinone, reference compound], the “irritation and cytotoxicity to the melanocyte” value was “particularly irritating and cytotoxic to the melanocyte”.

In a further data set the test system is fungal tyrosinase. Kind of data set: in vitro tyrosinase activity inhibition test. It is filed as biochemical. Conditions: decrease in maximum dopachrome formed (OD 475 nm, plateau) vs without inhibitor; inhibitor 50 mol. % relative to tyrosine; pH 6.5, 25° C. The text has this: According to this test, the quantity of dopachrome formed during the chain of reactions by which tyrosine is converted into melanins is monitored by visible spectrometry at 475 nm. These reactions are catalyzed in vitro by fungal tyrosinase in the presence of a reducing cosubstrate (for example L-dopa in a small quantity) to initiate the hydroxylation reaction of L-tyrosine into L-dopa. The L-dopa is then oxidized catalytically into dopaquinone and then into dopachrome, an intermediate formed prior to the nonenzymatic oxidation reactions that lead to formation of melanins.
The inhibitor concentrations are established at 50 mol. % relative to the tyrosine concentration in the reaction medium.
The effect of inhibition is expressed by the decrease in the maximum quantity of dopachrome formed (optical density value at 475 nm read from the plateau of the curve) relative to the quantity obtained in the absence of inhibitor.
A--0.1 M phosphate buffer, pH=6.5 (Tween 20, 1%)
B--Stock solution of L-tyrosine, 2×10^-3 M in A
C--Stock solution of L-dopa, 10^-4 M in A
D--Stock solution of fungal tyrosinase, 2400 units/ml, in A
E--Stock solution of inhibitor, 10^-2 M in A (solutions C and D must be prepared on the day of the experiment).
reference cell: 3 ml of A
homogenize and equilibrate at 25° C.
mix rapidly and observe kinetics by measuring absorbance at 475 nm as a function of time.
As for `COC(=O)Cc1cc(O)c(C)cc1O`, the “% change in maximum dopachrome vs no inhibitor” value (“% change … vs no inhibitor” for short) is given as -87%.

For the compound `Cc1cc(O)c(CC(=O)O)cc1O`, the “% change … vs no inhibitor” value is given as -66%.

For the compound `Cc1c(O)cc(CC(=O)O)c(O)c1C`, the “% change … vs no inhibitor” value is -59%.

`Cc1cc(O)c(CCC(=O)O)cc1O`: the “% change … vs no inhibitor” value was -64%.

As for `O=C(O)CCc1cc(O)ccc1O`, the “% change … vs no inhibitor” value was -42%.

For the compound `Oc1ccc(O)cc1` [hydroquinone, reference compound], the “% change … vs no inhibitor” value was -33%.
